Laboratory results as given in US6676932B2, “Ultraviolet absorbent, photostabilizer, ultraviolet ray-absorbing composition, photostabilized composition and external preparation for skin” (Shiseido Co., Ltd., priority 2001, dated 2004).

Legend:
[1] = test system: sunburn; assay: Ultraviolet preventive effect, application test on beach in summer (Test Example 2); format: in vivo, human
Description: An application test was carried out on beach in summer. Equal volumes of samples were individually coated on back halves of subjects. After exposure to direct daylight, the degree of sunburn was assessed according to the following assessment standards. Each group consists of 10 subjects.
Prominently effective: none or almost no sunburn symptom was observed.
Effective: light sunburn symptom was observed.
Ineffective: strong sunburn symptom was observed.
⊚: prominently effective or effective for 80% or more of the subjects.
◯: prominently effective or effective for 50% or more to less than 80% of the subjects.
Δ: prominently effective or effective for 30% or more to less than 50% of the subjects.
x: prominently effective or effective for less than 30% of the subjects.
The aqueous phase and the alcohol phase were separately prepared and then mixed together.
Propylene glycol was added to and dissolved in ion exchange water. The resulting solution was retained at 70° C. under heating (aqueous phase). Other ingredients were mixed […]. The resulting mixture was melted under heating and retained at 70° C. (oil phase). The oil phase was added to the aqueous phase, for preliminary emulsification with a homomixer to homogeneity. Under thorough mixing, subsequently, the mixture was cooled to 30° C.

[2] = Dye stabilization effect in blend with sequestering agents (Test Examples 212 to 275); format: physicochemical; conditions: dye Red 227 (Acid Fuchsine D) 0.0001, photostabilizer 0.01, daylight exposure (80 MJ)
Procedure, shortened: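 Colour difference (ΔE) measured by spectrophotometer in Lab coordinates before and after daylight exposure (80 MJ), relative to pre-exposure values (L1, a1, b1); appearance change also assessed visually.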

[3] = Stabilization effect on perfume under daylight exposure (Test Examples 92 to 181); format: physicochemical; parameters: key: ◯: no change; Δ: almost no change; x: change; conditions: daylight exposure (80 MJ)
Description: Each test sample was prepared for observation of the change of the odor of the test sample (determined by perfume coordinator) before and after daylight exposure (80 MJ).

[4] = Drug stabilization effect blended with sequestering agent (Test Examples 372 to 391); format: physicochemical; parameters: key to Appearance (visual determination): ◯: no change; Δ: almost no change; x: change; conditions: drug Salicylic acid 0.1, photostabilizer blend amount 0.03, daylight exposure (80 MJ)
Description: Then, the photostabilization effect of the pyridazine derivative in combination with sequestering agents on each drug and the change of the appearance of each composition were examined, by using the following formulation for assessment.
(§1) For observation of the change of the appearance of each test sample (determination based on visual observation) and the measurement of the remaining ratio by liquid chromatography before and after daylight exposure (80 MJ), the test sample was prepared.

[5] = Drug stabilization effect under daylight exposure (Test Examples 182 to 211); format: physicochemical; parameters: key to Appearance (visual determination): ◯: no change; Δ: almost no change; x: change; conditions: photostabilizer 0.05 wt %, daylight exposure (80 MJ); for Remaining ratio (%): liquid chromatography
Description: as §1

[6] = test system: skin; assay: Test of skin irritation: 24-hour occlusion patch test (Test Example 3 ii); format: in vivo, human; conditions: 10 wt % ultraviolet absorbent
Description: (§2) The same samples as in the Test Example 2 were used (at a 10 wt % amount of an ultraviolet absorbent).
20 Healthy male and female volunteers per one group were carried out in a 24-hour occlusion patch test, using a fin chamber on forearm curves. Assessment was done on the basis of the following assessment standards.
Mean score was determined for the assessment on the basis of the following standards.
(§3) ◯: mean score of more than 0 to less than 1.
(§4) Δ: mean score of 1 or more to less than 2.
(§5) x: mean score of 2 or more.

[7] = Dye stabilization effect under daylight exposure (Test Examples 6-91); format: physicochemical; parameters: key to Δ E: color difference ΔE in Lab vs. color before daylight exposure; key to Appearance (visual determination): ◯: no change; Δ: almost no change; x: change; conditions: photostabilizer 0.05 wt %, daylight exposure (80 MJ)
Procedure, shortened: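 Test samples exposed to daylight to 80 MJ; appearance judged visually. Colour measured by spectrophotometer in Lab coordinates, with ΔE calculated relative to pre-exposure values (L1, a1, b1).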

[8] = test system: skin; assay: Test of skin irritation: continuous application test (Test Example 3 i); format: in vivo, human; conditions: 10 wt % ultraviolet absorbent, twice daily for 4 weeks
Description: as §2
Continuous application test was carried out for 20 healthy subjects per one group. An appropriate amount of each of the samples was coated twice daily for 4 weeks. The effects were assessed according to the following assessment standards.
Mean score was calculated for the determination of the effect on the basis of the following standards.
as §3, §4, §5

[9] = drug L-ascorbic acid 2-glucoside 2.0 wt %
[10] = drug dibutylhydroxytoluene 0.01 wt %
[11] = drug dl-α-tocopherol 2-L-ascorbic acid phosphate diester potassium salt 0.01 wt %
[12] = dye Blue 1 (Brilliant Blue FCF) 0.0001 wt %
[13] = dye Green 3 (Fast Green FCF) 0.001 wt %
[14] = dye Red 227 (Acid Fuchsine D) 0.0001 wt %
[15] = dye Yellow 5 (Sunset Yellow FCF) 0.001 wt %
[16] = dyes Red 213 (Rhodamine B) 0.00001 + Blue 1 (Brilliant Blue FCF) 0.00001 wt %
[17] = dyes Red 227 (Acid Fuchsine D) 0.0001 + Yellow 5 (Sunset Yellow FCF) 0.0001 wt %
[18] = dyes Red 401 (Violanin R) 0.0001 + Blue 1 (Brilliant Blue FCF) 0.00001 wt %

## Oc1nncc(N2CCCCC2)c1N1CCCCC1 [4,5-Dipiperidino-3-hydroxypyridazine]
[1]; cream, blend amount 0.0005 wt %
  Ultraviolet prevention effect: Δ (prominently effective or effective for 30% or more to less than 50% of the subjects)
[1]; cream, blend amount 0.001 wt %
  Ultraviolet prevention effect: ◯ (prominently effective or effective for 50% or more to less than 80% of the subjects)
[1]; cream, blend amount 0.01 wt %
  Ultraviolet prevention effect: ⊚ (prominently effective or effective for 80% or more of the subjects)
[1]; cream, blend amount 1 wt %
  Ultraviolet prevention effect: ⊚ (prominently effective or effective for 80% or more of the subjects)
[1]; cream, blend amount 5 wt %
  Ultraviolet prevention effect: ⊚ (prominently effective or effective for 80% or more of the subjects)
[1]; cream, blend amount 10 wt %
  Ultraviolet prevention effect: ⊚ (prominently effective or effective for 80% or more of the subjects)
[1]; cream, blend amount 20 wt %
  Ultraviolet prevention effect: ⊚ (prominently effective or effective for 80% or more of the subjects)
[1]; lotion, blend amount 0.0005 wt %
  Ultraviolet prevention effect: Δ (prominently effective or effective for 30% or more to less than 50% of the subjects)
[1]; lotion, blend amount 0.001 wt %
  Ultraviolet prevention effect: ◯ (prominently effective or effective for 50% or more to less than 80% of the subjects)
[1]; lotion, blend amount 0.01 wt %
  Ultraviolet prevention effect: ⊚ (prominently effective or effective for 80% or more of the subjects)
[1]; lotion, blend amount 1 wt %
  Ultraviolet prevention effect: ⊚ (prominently effective or effective for 80% or more of the subjects)
[1]; lotion, blend amount 5 wt %
  Ultraviolet prevention effect: ⊚ (prominently effective or effective for 80% or more of the subjects)
[1]; lotion, blend amount 10 wt %
  Ultraviolet prevention effect: ⊚ (prominently effective or effective for 80% or more of the subjects)
[1]; lotion, blend amount 20 wt %
  Ultraviolet prevention effect: ⊚ (prominently effective or effective for 80% or more of the subjects)
[2]; no sequestering agent
  Δ E: 0.98
[2]; with ethylenediaminehydroxyethyl trisodium triacetate 0.02
  Δ E: 0.52
[2]; with ethylenediaminetetraacetate trisodium 0.02
  Δ E: 0.72
[2]; with sodium metaphosphate 0.02
  Δ E: 0.61
[3]; base perfume Rose, photostabilizer 0.05 wt %
  odor determination: ◯
[3]; base perfume Spicy, photostabilizer 0.2 wt %
  odor determination: ◯
[3]; base perfume Woody, photostabilizer 0.1 wt %
  odor determination: ◯
[3]; natural perfume Lavender oil, photostabilizer 0.1 wt %
  odor determination: ◯
[3]; natural perfume Rose oil, photostabilizer 0.05 wt %
  odor determination: ◯
[3]; natural perfume Ylang ylang oil, photostabilizer 0.2 wt %
  odor determination: ◯
[3]; synthetic perfume Citral, photostabilizer 0.1 wt %
  odor determination: ◯
[3]; synthetic perfume Linalool, photostabilizer 0.05 wt %
  odor determination: ◯
[3]; synthetic perfume Linalyl acetate, photostabilizer 0.1 wt %
  odor determination: ◯
[4]; no sequestering agent
  Appearance (visual determination): Δ
[4]; with ethylenediamine tetraacetate trisodium 0.03
  Appearance (visual determination): ◯
[5]; [9]
  Appearance (visual determination): ◯
  Remaining ratio (%): 99.3%
[5]; [10]
  Appearance (visual determination): ◯
  Remaining ratio (%): 99.0%
[5]; [11]
  Appearance (visual determination): ◯
  Remaining ratio (%): 99.1%
[5]; drug salicylic acid 0.1 wt %
  Appearance (visual determination): ◯
  Remaining ratio (%): 99.6%
[6]; cream
  Determination (skin reaction, patch test): ⊚ (mean score of 0)
[6]; lotion
  Determination (skin reaction, patch test): ⊚ (mean score of 0)
[7]; [12]
  Appearance (visual determination): ◯
  Δ E: 1.22
[7]; [13]
  Appearance (visual determination): ◯
  Δ E: 0.45
[7]; [14]
  Appearance (visual determination): ◯
  Δ E: 0.53
[7]; [15]
  Appearance (visual determination): ◯
  Δ E: 0.55
[7]; [16]
  Appearance (visual determination): ◯
  Δ E: 1.11
[7]; [17]
  Appearance (visual determination): ◯
  Δ E: 0.63
[7]; [18]
  Appearance (visual determination): ◯
  Δ E: 0.38
[8]; cream
  Determination (skin reaction, continuous application test): ⊚ (mean score of 0)
[8]; lotion
  Determination (skin reaction, continuous application test): ⊚ (mean score of 0)
